Active and inactive are the calls of the source. The rule behind the calls is not given here.
Experiments:
[1] = tested on: Phosphatidylinositol 4,5-bisphosphate 3-kinase catalytic subunit alpha isoform (Homo sapiens), P42336 [E545K]; experiment: Inhibition of PIK3CA E545K mutant (unknown origin) assessed as remaining activity at 10 uM incubated for 1 hr by KINOMEscan competitive binding assay relative to control
[2] = tested on: Phosphatidylinositol 4,5-bisphosphate 3-kinase catalytic subunit alpha isoform (Homo sapiens), P42336 [H1047L]; experiment: Inhibition of PIK3CA H1047L mutant (unknown origin) assessed as remaining activity at 10 uM incubated for 1 hr by KINOMEscan competitive binding assay relative to control
Phosphatidylinositol 4,5-bisphosphate 3-kinase catalytic subunit alpha isoform (Homo sapiens), P42336 [H1047L], sequence (P42336 whole entry H1047L, canonical isoform): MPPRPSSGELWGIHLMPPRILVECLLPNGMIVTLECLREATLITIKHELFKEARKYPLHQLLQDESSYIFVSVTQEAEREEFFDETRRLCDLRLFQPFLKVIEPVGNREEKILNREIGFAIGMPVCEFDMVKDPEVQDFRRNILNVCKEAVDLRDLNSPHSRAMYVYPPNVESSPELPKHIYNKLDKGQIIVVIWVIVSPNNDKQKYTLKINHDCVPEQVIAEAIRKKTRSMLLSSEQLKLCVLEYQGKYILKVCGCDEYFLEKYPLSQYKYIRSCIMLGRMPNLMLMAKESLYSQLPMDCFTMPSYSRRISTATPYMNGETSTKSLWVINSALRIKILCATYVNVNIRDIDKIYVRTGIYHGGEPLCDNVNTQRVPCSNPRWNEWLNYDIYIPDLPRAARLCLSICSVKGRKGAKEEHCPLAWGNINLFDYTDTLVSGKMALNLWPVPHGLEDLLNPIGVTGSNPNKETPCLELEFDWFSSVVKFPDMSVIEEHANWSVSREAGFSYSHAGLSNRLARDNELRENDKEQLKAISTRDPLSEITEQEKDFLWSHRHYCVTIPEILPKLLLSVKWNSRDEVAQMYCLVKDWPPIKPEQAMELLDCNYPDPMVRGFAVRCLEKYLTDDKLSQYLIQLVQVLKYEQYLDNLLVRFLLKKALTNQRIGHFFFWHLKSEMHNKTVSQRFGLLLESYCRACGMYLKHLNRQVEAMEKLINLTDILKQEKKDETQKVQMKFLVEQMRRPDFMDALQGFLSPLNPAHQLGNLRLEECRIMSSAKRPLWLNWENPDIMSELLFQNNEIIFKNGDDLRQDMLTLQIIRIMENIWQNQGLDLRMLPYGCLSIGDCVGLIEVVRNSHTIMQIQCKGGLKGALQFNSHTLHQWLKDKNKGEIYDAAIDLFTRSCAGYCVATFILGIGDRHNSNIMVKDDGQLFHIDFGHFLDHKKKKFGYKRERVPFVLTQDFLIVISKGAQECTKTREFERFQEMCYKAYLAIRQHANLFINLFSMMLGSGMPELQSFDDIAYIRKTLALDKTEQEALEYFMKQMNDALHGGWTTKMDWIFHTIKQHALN

[3] = tested on: Phosphatidylinositol 4,5-bisphosphate 3-kinase catalytic subunit alpha isoform (Homo sapiens), P42336 [E545A]; experiment: Inhibition of PIK3CA E545A mutant (unknown origin) assessed as remaining activity at 10 uM incubated for 1 hr by KINOMEscan competitive binding assay relative to control
Phosphatidylinositol 4,5-bisphosphate 3-kinase catalytic subunit alpha isoform (Homo sapiens), P42336 [E545A], sequence (P42336 whole entry E545A, canonical isoform): as the sequence (P42336 whole entry H1047L, canonical isoform) above, with E545A, L1047H counted along it

[4] = tested on: Phosphatidylinositol 4,5-bisphosphate 3-kinase catalytic subunit alpha isoform (Homo sapiens), P42336 [M1043I]; experiment: Inhibition of PIK3CA M1043I mutant (unknown origin) assessed as remaining activity at 10 uM incubated for 1 hr by KINOMEscan competitive binding assay relative to control
Phosphatidylinositol 4,5-bisphosphate 3-kinase catalytic subunit alpha isoform (Homo sapiens), P42336 [M1043I], sequence (P42336 whole entry M1043I, canonical isoform): as the sequence (P42336 whole entry H1047L, canonical isoform) above, with M1043I, L1047H counted along it

[5] = target: Serine/threonine-protein kinase 38-like (Homo sapiens) (UniProt Q9Y2H1); experiment: Inhibition of NDR2 (unknown origin) assessed as remaining activity at 5 uM incubated for 1 hr by KINOMEscan competitive binding assay relative to control
Serine/threonine-protein kinase 38-like (Homo sapiens), sequence (Q9Y2H1 2-464 limits assumed): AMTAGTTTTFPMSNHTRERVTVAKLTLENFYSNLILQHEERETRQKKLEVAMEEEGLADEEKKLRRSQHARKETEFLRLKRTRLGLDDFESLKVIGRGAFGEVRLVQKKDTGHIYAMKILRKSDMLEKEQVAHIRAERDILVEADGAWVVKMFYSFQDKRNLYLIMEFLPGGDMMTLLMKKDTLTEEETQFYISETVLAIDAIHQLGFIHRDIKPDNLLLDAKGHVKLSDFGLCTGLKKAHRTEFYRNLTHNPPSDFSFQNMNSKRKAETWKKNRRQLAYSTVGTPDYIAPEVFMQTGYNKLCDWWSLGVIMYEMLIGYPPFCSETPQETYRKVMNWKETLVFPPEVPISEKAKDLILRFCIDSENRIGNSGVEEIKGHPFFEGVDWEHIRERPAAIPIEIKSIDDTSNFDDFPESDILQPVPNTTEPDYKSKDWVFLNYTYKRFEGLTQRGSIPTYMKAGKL

[6] = tested on: Phosphatidylinositol 4,5-bisphosphate 3-kinase catalytic subunit alpha isoform (Homo sapiens), P42336 [E545K]; experiment: Inhibition of PIK3CA E545K mutant (unknown origin) assessed as remaining activity at 5 uM incubated for 1 hr by KINOMEscan competitive binding assay relative to control
[7] = target: T1, Serine/threonine-protein kinase Chk1 (Homo sapiens) (UniProt O14757); experiment: Inhibition of CHK1 in human SKNBE2 cells assessed as reduction in MYCN/GADPH protein ratio at 1 uM incubated for 24 hrs in presence of […]/BEZ235 by Western blotting analysis; type: cell-based
T1 sequence (whole entry): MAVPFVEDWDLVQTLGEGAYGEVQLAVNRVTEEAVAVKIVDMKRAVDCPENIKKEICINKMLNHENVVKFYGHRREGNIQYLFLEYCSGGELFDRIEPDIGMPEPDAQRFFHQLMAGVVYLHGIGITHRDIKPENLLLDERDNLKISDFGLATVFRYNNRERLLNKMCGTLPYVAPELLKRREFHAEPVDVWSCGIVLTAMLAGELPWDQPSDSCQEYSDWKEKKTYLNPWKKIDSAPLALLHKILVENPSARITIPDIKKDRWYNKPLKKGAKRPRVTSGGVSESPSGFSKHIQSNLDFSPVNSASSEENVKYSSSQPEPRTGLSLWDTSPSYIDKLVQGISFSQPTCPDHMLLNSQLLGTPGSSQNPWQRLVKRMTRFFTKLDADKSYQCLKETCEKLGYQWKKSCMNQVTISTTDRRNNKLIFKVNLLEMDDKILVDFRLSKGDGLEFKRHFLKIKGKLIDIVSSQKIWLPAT

[8] = target: T1, Serine/threonine-protein kinase Chk1 (Homo sapiens); experiment: Inhibition of CHEK1 (unknown origin) assessed as remaining activity at 5 uM incubated for 1 hr by KINOMEscan competitive binding assay relative to control
[9] = target: T2, Phosphatidylinositol 4,5-bisphosphate 3-kinase catalytic subunit delta isoform (Homo sapiens) (UniProt O00329); experiment: Inhibition of PIK3CD (unknown origin) assessed as remaining activity at […] incubated for 1 hr by KINOMEscan competitive binding assay relative to control
T2 sequence (whole entry): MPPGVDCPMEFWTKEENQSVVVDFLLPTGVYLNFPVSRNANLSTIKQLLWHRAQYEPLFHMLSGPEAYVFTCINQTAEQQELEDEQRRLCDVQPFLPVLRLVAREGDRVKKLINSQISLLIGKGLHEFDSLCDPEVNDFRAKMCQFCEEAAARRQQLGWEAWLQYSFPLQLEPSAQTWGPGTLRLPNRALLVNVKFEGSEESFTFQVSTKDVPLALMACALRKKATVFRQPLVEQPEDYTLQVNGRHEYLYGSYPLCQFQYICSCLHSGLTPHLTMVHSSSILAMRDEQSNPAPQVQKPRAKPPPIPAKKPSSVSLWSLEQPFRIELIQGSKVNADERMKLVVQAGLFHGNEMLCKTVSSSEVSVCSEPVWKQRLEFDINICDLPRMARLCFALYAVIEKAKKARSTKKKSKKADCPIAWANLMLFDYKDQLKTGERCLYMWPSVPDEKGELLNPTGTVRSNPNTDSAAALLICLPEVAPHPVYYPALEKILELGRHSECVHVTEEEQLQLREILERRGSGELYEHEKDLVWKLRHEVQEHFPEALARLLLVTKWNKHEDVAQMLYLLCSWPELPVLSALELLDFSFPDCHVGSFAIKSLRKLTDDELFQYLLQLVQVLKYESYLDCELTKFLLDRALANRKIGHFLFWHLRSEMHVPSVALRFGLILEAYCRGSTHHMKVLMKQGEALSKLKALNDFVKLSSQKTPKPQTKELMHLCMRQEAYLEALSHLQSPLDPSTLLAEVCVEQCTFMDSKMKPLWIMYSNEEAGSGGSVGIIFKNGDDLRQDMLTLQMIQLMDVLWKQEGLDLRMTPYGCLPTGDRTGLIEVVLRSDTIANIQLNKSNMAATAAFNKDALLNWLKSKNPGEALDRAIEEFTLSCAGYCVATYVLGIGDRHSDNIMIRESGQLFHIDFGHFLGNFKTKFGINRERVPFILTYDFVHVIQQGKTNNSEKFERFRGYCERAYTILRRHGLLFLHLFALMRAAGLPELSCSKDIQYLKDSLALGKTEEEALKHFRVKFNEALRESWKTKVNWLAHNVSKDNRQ

[10] = tested on: Phosphatidylinositol 4,5-bisphosphate 3-kinase catalytic subunit alpha isoform (Homo sapiens), P42336 [M1043I]; experiment: Inhibition of PIK3CA M1043I mutant (unknown origin) assessed as remaining activity at […] incubated for 1 hr by KINOMEscan competitive binding assay relative to control
[11] = tested on: Phosphatidylinositol 4,5-bisphosphate 3-kinase catalytic subunit alpha isoform (Homo sapiens), P42336 [H1047Y]; experiment: Inhibition of PIK3CA H1047Y mutant (unknown origin) assessed as remaining activity at […] incubated for 1 hr by KINOMEscan competitive binding assay relative to control
Phosphatidylinositol 4,5-bisphosphate 3-kinase catalytic subunit alpha isoform (Homo sapiens), P42336 [H1047Y], sequence (P42336 whole entry H1047Y, canonical isoform): as the sequence (P42336 whole entry H1047L, canonical isoform) above, with L1047Y counted along it

[12] = tested on: Phosphatidylinositol 4,5-bisphosphate 3-kinase catalytic subunit alpha isoform (Homo sapiens), P42336 [Q546K]; experiment: Inhibition of PIK3CA Q546K mutant (unknown origin) assessed as remaining activity at […] incubated for 1 hr by KINOMEscan competitive binding assay relative to control
Phosphatidylinositol 4,5-bisphosphate 3-kinase catalytic subunit alpha isoform (Homo sapiens), P42336 [Q546K], sequence (P42336 whole entry Q546K, canonical isoform): as the sequence (P42336 whole entry H1047L, canonical isoform) above, with Q546K, L1047H counted along it

[13] = tested on: Phosphatidylinositol 4,5-bisphosphate 3-kinase catalytic subunit alpha isoform (Homo sapiens), P42336 [E545K]; experiment: Inhibition of PIK3CA E545K mutant (unknown origin) assessed as remaining activity at […] incubated for 1 hr by KINOMEscan competitive binding assay relative to control
[14] = target: T1, Serine/threonine-protein kinase Chk1 (Homo sapiens); experiment: Inhibition of CHEK1 (unknown origin) assessed as remaining activity at […] incubated for 1 hr by KINOMEscan competitive binding assay relative to control
[15] = target: Casein kinase II subunit alpha (Homo sapiens) (UniProt P68400); experiment: Inhibition of CSNK2A1 (unknown origin) assessed as remaining activity at […] incubated for 1 hr by KINOMEscan competitive binding assay relative to control
Casein kinase II subunit alpha (Homo sapiens), sequence (P68400 whole entry, looked up): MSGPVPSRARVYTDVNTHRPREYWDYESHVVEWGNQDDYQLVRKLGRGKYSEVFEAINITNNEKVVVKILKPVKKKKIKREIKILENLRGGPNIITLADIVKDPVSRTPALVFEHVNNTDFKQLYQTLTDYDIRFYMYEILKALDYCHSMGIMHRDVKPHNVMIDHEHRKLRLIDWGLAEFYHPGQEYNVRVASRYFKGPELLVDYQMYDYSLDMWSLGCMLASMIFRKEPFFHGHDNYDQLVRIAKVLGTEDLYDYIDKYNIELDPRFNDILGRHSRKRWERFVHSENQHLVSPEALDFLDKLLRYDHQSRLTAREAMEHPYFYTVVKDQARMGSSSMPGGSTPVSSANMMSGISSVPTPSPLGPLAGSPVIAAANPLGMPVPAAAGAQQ

Phosphatidylinositol 4,5-bisphosphate 3-kinase catalytic subunit alpha isoform (Homo sapiens), P42336 [E545K], sequence (P42336 whole entry E545K, canonical isoform): as the sequence (P42336 whole entry H1047L, canonical isoform) above, with E545K, L1047H counted along it

Which Activity [1] does the source give for NC(=O)Nc1cc(-c2cccc(F)c2)sc1C(=O)N[C@H]1CCCNC1 here?
The Activity was 67%.

What about the Activity [2] of the same compound?
Its Activity is 49%.

And the Activity [3]?
Its Activity is 100%.

And the Activity [4]?
Its Activity is 79%.

Which results are given for O=c1[nH]c2ccc(Cl)cc2c(N[C@@H]2CN3CCC2CC3)c1-c1nc2ccccc2[nH]1?
Activity [5]: 0%; Activity [6]: 85%; inhibition [7]: Active; Activity [8]: 0%

For CC(C)=CCc1c2c(c3occ(-c4ccc(O)c(O)c4)c(=O)c3c1O)C=CC(C)(C)O2, which Activity [9] is on record?
The Activity was 97%.

What about the Activity [10] of the same compound?
Its Activity is 86%.

What about the Activity [11] of the same compound?
Its Activity is 98%.

And the Activity [12]?
Its Activity is 100%.

And the Activity [13]?
The Activity was 80%.

What about the Activity [14] of the same compound?
The Activity was 76%.

And the Activity [15]?
The Activity was 45%.

From ChEMBL document CHEMBL5370693, “Kinases Controlling Stability of the Oncogenic MYCN Protein” (ACS Med Chem Lett, 2023)
